From patent US10314843B2, “Combinations for the treatment of neoplasms using quiescent cell targeting and inhibitors of mitosis” (Felicitex Therapeutics, Inc., priority 2016, dated 2019)
pEC50: −log10 of the molar value.

What was measured:
Assay type in all cases: cell-based
SW620 cells = test: FACS cell cycle distribution by DNA content (propidium iodide), SW620 cells in FBS- media; conditions: 24 hours in FBS- media, AZ191 2.5, 5, 10 μM, Compound I-7 1.25, 2.5, 5 μM
Procedure: Cell cultures were seeded into 6-well plates at 3×10^5-6×10^5 cells/well; the plated number of cells depended on cell size and rate of proliferation, aiming for approximately 50% confluency. After seeding, the cells were allowed to attach for 24 hours while incubated at 37° C. in a humidified 5% CO2 atmosphere, and then treated with compounds for desired amount of time (usually 24 hours) incubating under same conditions. Then the cells were harvested by trypsinization, pooled with the floating cells, washed in PBS, and fixed in 70% ice-cold ethanol overnight. […] […] The complete protocol and composition of buffers are described in the literature (Darzynkiewicz Z, Juan G, and Srour E F (2004) Differential Staining of DNA and RNA (2004). Current Protocols in Cytometry, Chapter 7:Unit 7.3).
The SW620 cells were cultured and treated as described in Example 1. For propidium iodide (PI) staining, manufacturer's protocol supplied with the Guava Cell Cycle Reagent for Flow Cytometry (EMD Millipore) was followed. The measurements were performed with Guava PCA-96 flow cytometer (EMD Millipore) using the green laser for excitation at 535 nm and monitoring emission at 617 nm.
The SW620 cells were cultured, treated, and analyzed as described in Examples 1. […]

DMS273 cells = test: CellTiter-Glo cell viability assay, DMS273 cells; conditions: Homo sapiens, DMS-273, DMS273 cells
Description: (§1) The following cell lines were obtained from ATCC and cultured according to the ATCC recommendations: DMS273—small cell lung cancer cell line; H1975—non-small cell lung cancer cell line harboring L858R and T790M mutations in EGFR TK; A549—a non-small cell lung cancer cell line with wild type EGFR; LNCap—prostate cancer cell line; SW620—colon cancer cell line; MiaPaCa2—pancreatic cancer cell line; PANC1—pancreatic cancer cell line; OVCAR3—ovarian cancer cell line; SK-OV-3—ovarian cancer cell line.
(§2) For viability analysis, cells were seeded into 96-well plates at 2×10^3-6×10^3 cells/well; the plated number of cells depended on cell size and rate of proliferation aiming for approximately 50% confluency. After seeding, the cells were allowed to attach for 24 hours incubated at 37° C. in a humidified 5% CO2 atmosphere.
(§3) The treatments were performed using at least 6 different concentrations of a compound in 1:3 serial dilutions in DMSO such that the DMSO concentration in the cell medium was <1%. The cell cultures were incubated for an additional 96 hours in 5% CO2 incubator at 37° C. Treatments were performed in triplicate. Results were analyzed by CellTiter-Glo™ Luminescent Cell Viability Assay (Promega, cat. #G7571) according to the manufacturer's instructions using Spectra MAX Gemini Spectrophotometer (Molecular Devices).

A549 cells = test: CellTiter-Glo cell viability assay, A549 cells; conditions: Homo sapiens
Description: as §1, §2, §3

H1975 cells = test: CellTiter-Glo cell viability assay, H1975 cells; conditions: Homo sapiens, NCI-H1975, H1975 cells
Description: as §1, §2, §3

PANC1 cells = test: CellTiter-Glo cell viability assay, PANC1 cells; conditions: Homo sapiens, PANC-1, PANC1 cells
Description: as §1, §2, §3

Compound | fraction of cells in quiescent state (G0), based on fraction of cells in G0+G1 phase (SW620 cells) | pEC50 (DMS273 cells; Compound I-7 not present) | pEC50 (DMS273 cells; Compound I-7 present at 2 μM) | pEC50 (DMS273 cells; Compound I-7 present at 4 μM) | pEC50 (A549 cells; Compound I-7 not present) | pEC50 (A549 cells; Compound I-7 present at 3 μM) | pEC50 (A549 cells; Compound I-7 present at 6 μM) | pEC50 (H1975 cells; Compound I-7 not present) | pEC50 (H1975 cells; Compound I-7 present at 2 μM) | pEC50 (H1975 cells; Compound I-7 present at 4 μM) | pEC50 (PANC1 cells; Compound I-7 not present) | pEC50 (PANC1 cells; Compound I-7 present at 2 μM) | pEC50 (PANC1 cells; Compound I-7 present at 4 μM)
COc1cc(N2CCN(C)CC2)ccc1Nc1nccc(-c2cn(C)c3cnccc23)n1 [AZ191] | no decrease in fraction of cells in quiescent state (G0) | – | – | – | – | – | – | – | – | – | – | – | –
CC[C@@H]1C(=O)N(C)c2cnc(Nc3ccc(C(=O)NC4CCN(C)CC4)cc3OC)nc2N1C1CCCC1 [BI2536] | – | 8.21 | 8.39 | 8.77 | 8.21 | 8.39 | 8.77 | 7.33 | 7.76 | > 10.40 | 8.14 | 8.36 | 8.60
C[C@@H](Oc1cc(-n2cnc3ccc(CN4CCN(C)CC4)cc32)sc1C(N)=O)c1ccccc1C(F)(F)F [GSK461364] | – | 6.37 | 6.62 | 6.92 | 5.92 | 6.30 | 6.70 | 5.72 | 6.01 | 6.24 | 6.30 | 6.52 | 6.70
